The experiment relates to SK-MEL-5 TRPM1-promoter luciferase reporter, 24 h. Description: reducers of TRPM1 reporter luminescence, concentration series – cell-based, SK-MEL-5, cherry-picked, set 4, MITF inhibitor project, dose response (AID 493102).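 Further: actives lower the luciferase signal so the potency reflects inhibition of reporter expression.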

We go through 98 molecules from PubChem BioAssay AID493102 (Broad Institute, 2011).

Regarding `CC(C)(C)c1ccc(-c2cc(N)n[nH]2)cc1`, the AC50 (in general, the concentration at which the activity in the assay is half-maximal) was 0.511 µM.

Take `COc1cc([N+](=O)[O-])cc(/C=N/NC(=O)c2ccc(NC(=O)c3ccc(C)cc3)cc2)c1O`: the AC50 is 1.55 µM.

`N/C(=N\OC(=O)c1ccccc1)c1ccccn1`: the AC50 is 11.9 µM.

As for `Cn1cc(C(=O)N/N=C/c2c(O)ccc3ccccc23)ccc1=O`, the AC50 was 2.55 µM.

`CC(C)C(=O)N1CCN(c2ccc(NC(=O)c3ccc([N+](=O)[O-])o3)cc2Cl)CC1`: the AC50 was 7.05 µM.

In the case of `CN1CCN(C2=C(NS(=O)(=O)c3cccs3)C(=O)c3ccccc3C2=O)CC1`, the AC50 is 6.98 µM.

`O=C(Cn1ncc(Cl)c(Cl)c1=O)N1CCc2ccccc21`: the AC50 was 6.1 µM.

As to `O=C(/C=C/c1ccccc1)Nc1cccc(C(=O)O)c1`, the AC50 is 1.52 µM.

For `c1ccc(C[n+]2cccc3c4ccccc4ccc32)cc1`, the AC50 was 3.41 µM.

On to `CC1C/C(=C\c2cccnc2)C(=O)/C(=C/c2cccnc2)C1` (stereo not drawn), for which the AC50 was 2.66 µM.

With `O=C(/C=C\Nc1ccc2c(c1)OCO2)c1ccccn1`, the AC50 was 2.08 µM.

`Cc1cc(-n2c(SCC(=O)NCCC3=CCCCC3)nc3n[nH]c(C)c3c2=N)ccc1Cl`: the concentration at half-maximal activity (AC50) is 17.1 µM.

For the molecule `O=C(Cn1ncc(Cl)c(Cl)c1=O)NCC1CCCCC1`, the AC50 was 7.39 µM.

As for `CCC(=O)OCCNc1cc(Sc2nccn2C)c2nonc2c1[N+](=O)[O-]`, the AC50 was 7.16 µM.

As for `COc1ccc(N/N=C/c2c(C(=O)O)ccc3ccccc23)cc1`, the AC50 is 5.11 µM.

In the case of `COCCNC(=O)/C(C#N)=C/c1cccc(/C=C(\C#N)C(=O)NCCOC)c1`, the AC50 is 12.7 µM.

Regarding `CCN1CCN(c2ccc(S(=O)(=O)N3CCCCC3)cc2NC(=O)/C=C/c2ccc([N+](=O)[O-])cc2)CC1`, the AC50 is 7.51 µM.

Consider `Cc1ccc(C2CC(C(F)(F)F)n3nc(C(=O)NCc4c(C)nn(C)c4C)c(Cl)c3N2)cc1` (stereo not drawn), for which the AC50 is 8.89 µM.

With `CC(=O)N(C1CC(C)C(C#N)(C#N)C1(C#N)C#N)N(C)C` (stereo not drawn), the AC50 was 9.24 µM.

With `Cc1cc(C)c2ccc(N)nc2c1O`, the AC50 is 9.58 µM.

In the case of `Cc1cc(C(=O)Nc2cccc(C(=O)O)c2)oc1C`, the AC50 is 4.35 µM.

On to `Cc1nc2ccccn2c1C(=O)/C=C/c1cccc([N+](=O)[O-])c1`, for which the half-maximal activity concentration (AC50) was 6.9 µM.

As to `Nc1nc2ccccc2n1/N=C/c1ccc([N+](=O)[O-])s1`, the AC50 was 2.81 µM.

Regarding `O=[N+]([O-])c1ccc(S(=O)(=O)CC(CN2CCCCC2)N2CCCCC2)cc1` (stereo not drawn), the AC50 was 4.88 µM.

`Cc1ccc(OCC(=O)N/N=C/c2ccc([N+](=O)[O-])o2)cc1`: the AC50 is 8.9 µM.

Consider `CC(C)(C)C(=O)Cn1ncc(Cl)c(Cl)c1=O`, for which the AC50 was 10.4 µM.

Turning to `CCN1CCN(CCCNC(=O)c2ccc3c(c2)NC(=O)/C(=C\c2cccc(C)c2)S3)CC1`, the AC50 is 9.93 µM.

`Cc1ccc(C2=NN(C(=O)CCl)C(c3cccs3)C2)o1` (stereo not drawn): the AC50 is 6.1 µM.

For the molecule `Nc1ncnc(Sc2ncccn2)c1[N+](=O)[O-]`, the AC50 is 11.7 µM.

Turning to `Cc1ccc(C)c(C(=O)Cn2ncc(Cl)c(Cl)c2=O)c1`, the AC50 was 14.5 µM.

As for `S=C=Nc1cccc(C2(N3CCCCC3)CCCCC2)c1`, the AC50 is 7.36 µM.

As for `c1ccc(-c2cn3nc4c(nc3n2)CCCC4)cc1`, the concentration at half-maximal activity (AC50) was 5.89 µM.

Take `CN(C)CCCNC(=O)/C(=C\c1ccc(-c2ccc(Br)cc2)o1)NC(=O)c1ccccc1`: the AC50 was 7.51 µM.

With `Oc1c(CN2CCCC2)cc(COCc2ccccc2)c2cccnc12`, the AC50 was 6.15 µM.

Consider `CCc1ccc(N2C(=O)NC(=O)/C(=C\C=C\c3ccco3)C2=O)cc1`, for which the AC50 was 7.53 µM.

As to `COc1ccc(O)c(/C=N/NC(=O)c2ccc(CSc3nc(C)cc(C)n3)cc2)c1`, the AC50 was 9.31 µM.

As to `CCCCCCCNC(=O)C1(CC2CC(c3ccc(Cl)cc3)=NO2)CCNCC1` (stereo not drawn), the AC50 was 14 µM.

As for `Cc1ccc(-c2cc(-c3ccc(C)cc3)[n+](C)o2)cc1`, the AC50 is 8.24 µM.

On to `Cc1cccc(NC(=O)CNC(=O)Cn2ncc(Cl)c(Cl)c2=O)c1C`, for which the concentration at half-maximal activity (AC50) is 13.4 µM.

Regarding `CCN1c2ccccc2NC2N=C(OC)C(c3ccccc3)C21` (stereo not drawn), the half-maximal activity concentration (AC50) is 7.52 µM.

On to `Cc1ccc(NC(=O)C2CCN(S(=O)(=O)c3c(C)noc3/C=C/c3ccco3)CC2)nc1`, for which the AC50 was 5.56 µM.

Consider `N#C/C(=C\C=C\c1ccccc1[N+](=O)[O-])C(=O)NCc1ccccc1`, for which the AC50 is 14.7 µM.

Take `O=[N+]([O-])c1cc(S(=O)(=O)N2CCCCCC2)ccc1F`: the AC50 was 9.53 µM.

As to `COc1ccccc1CNCC(O)Cn1c2ccccc2c2ccccc21` (stereo not drawn), the half-maximal activity concentration (AC50) was 18.7 µM.

`CCS(=O)(=O)c1ccc(N=Nc2ccc(O)c3ncccc23)c(OC)c1`: the AC50 is 9.23 µM.

For `CCOC(=O)c1c(NC(C)=O)sc2c(OCC(O)CNC(C)(C)C)c(Br)ccc12` (stereo not drawn), the AC50 was 7.72 µM.

On to `CCOc1cc(/C=N/Nc2cccc(C(=O)O)c2)ccc1OC(=O)c1ccccc1`, for which the AC50 was 1.38 µM.

For `CC1CCC(C(C)C)C(OC(=O)Cn2c(-c3ccccc3)[n+](C)c3ccccc32)C1` (stereo not drawn), the AC50 was 2.37 µM.

For the molecule `CCN1CCCC1CNC(=O)c1ccc2c(c1)NC(=O)/C(=C\c1ccc(C)cc1)S2` (stereo not drawn), the AC50 is 18.9 µM.

On to `CCN1CCc2c(sc(NC(=O)c3ccc(S(=O)(=O)N4CCCCCC4)cc3)c2C(=O)NC)C1`, for which the AC50 was 16.6 µM.

For the molecule `COc1ccc(C(=O)N/N=C/c2cc(Br)ccc2O)cc1OC`, the AC50 is 4.76 µM.

Turning to `N=c1n(CC(=O)c2ccc([N+](=O)[O-])cc2)c2ccccc2n1Cc1ccccc1`, the AC50 was 4.83 µM.

In the case of `CC(=O)N1CCc2c(sc(NC(=O)c3ccc([N+](=O)[O-])o3)c2C#N)C1`, the AC50 was 2.22 µM.

`O=C(CCl)N(c1ccccc1)C1CCCCC1`: the AC50 was 4.51 µM.

As to `Cc1ccc(NC(=O)c2cc3ccccc3oc2=O)cc1S(=O)(=O)N(C)C`, the AC50 is 0.03 µM.

Take `COC(=O)C1=C(C)N(Cc2ccccc2)C(=NCCc2cccnc2)N[C@H]1c1ccc(Br)cc1`: the AC50 is 17.8 µM.

On to `CN1CCN(c2ccc(NC(=S)NC(=O)c3cccc4ccccc34)cc2)CC1`, for which the AC50 is 9 µM.

On to `Cc1c(C#N)c(O)n(CCO)c(=O)c1N=Nc1ccc2c(c1)COC2=O`, for which the AC50 was 9.69 µM.

With `CN(C)CCCN(C(=O)c1ccc(Cl)s1)c1nc2cc3c(cc2s1)OCO3`, the AC50 is 22.9 µM.

As for `CC(C)(C)C(=O)/C(=C/c1ccncc1)n1cncn1`, the AC50 is 6.63 µM.

For `Cc1cc2ncn(/N=C/c3ccc([N+](=O)[O-])o3)c2cc1C`, the AC50 was 21.9 µM.

In the case of `O=C(CCl)N1c2ccccc2SCC1c1ccccc1` (stereo not drawn), the AC50 was 4.2 µM.

Turning to `O=C(N/N=C/c1ccc([N+](=O)[O-])s1)c1ccccc1Br`, the AC50 was 3.65 µM.

On to `CN1C/C(=C/c2cccnc2)C(=O)/C(=C/c2cccnc2)C1`, for which the AC50 was 5.31 µM.

As for `O=C(Nc1ccc(OC(F)(F)F)cc1)c1[nH]ncc1[N+](=O)[O-]`, the AC50 was 0.601 µM.

As to `CCN1c2ccccc2NC2C1C(C(C)=O)C(=O)N2c1ccc(Cl)cc1` (stereo not drawn), the AC50 is 12.7 µM.

For the molecule `CCN1CCN(C2=C(NS(=O)(=O)c3ccc(Br)cc3)C(=O)c3ccccc3C2=O)CC1`, the half-maximal activity concentration (AC50) is 5.71 µM.

As to `COC(=O)CCS(=O)(=O)c1nc(-c2ccccc2)cc(C(F)(F)F)n1`, the AC50 was 5.85 µM.

For the molecule `CCOC(=O)N1CCC(NC(=O)C2CCCN(Cc3nc(-c4cccc(C)c4)oc3C)C2)CC1` (stereo not drawn), the AC50 is 34.9 µM.

On to `Cc1ccc(C(=O)N/N=C\c2ccc([N+](=O)[O-])s2)cn1`, for which the AC50 was 2.95 µM.

As for `COc1ccc(Cn2c(-c3ccc(C)cc3)c[n+]3ccccc23)cc1`, the AC50 is 2.89 µM.

Regarding `CCc1ccc(NC2=CC(=O)C(=O)c3ccccc32)cc1`, the concentration at half-maximal activity (AC50) was 3.59 µM.

Turning to `COc1cnc(-c2ccccn2)nc1NC(C)C`, the AC50 is 12.4 µM.

`CC1CCCCC1NC(=O)/C(C#N)=C/C=C/c1ccccc1[N+](=O)[O-]` (stereo not drawn): the AC50 is 7.92 µM.

With `CCNC1=C(Cl)C(=O)c2ccccc2C1=O`, the AC50 is 3.84 µM.

Consider `COc1ccc(/C=N/Nc2cc(C)nc(-n3nc(C)cc3C)n2)c(OC)c1`, for which the AC50 is 10.4 µM.

For the molecule `O=C(Cc1ccc2c(c1)OCO2)NN=Cc1ccc([N+](=O)[O-])o1`, the AC50 was 8.55 µM.

As to `O=C(NC1CCCCC1)C(c1cccnc1)N(C(=O)CCl)c1cccc(Cl)c1` (stereo not drawn), the AC50 is 4.16 µM.

Regarding `Clc1ccc(-c2c[n+](Cc3cccc(Cl)c3)c3n2CCC3)cc1`, the AC50 is 8.77 µM.

Turning to `CC1(C)CC(=O)C=C(NC2=CC3OC(c4ccccc4)OCC3OC2=O)C1` (stereo not drawn), the AC50 was 7.71 µM.

For the molecule `CCN1CCN(c2ccc(NC(=O)c3ccc([N+](=O)[O-])o3)cc2Cl)CC1`, the AC50 was 9.54 µM.

On to `Cc1ccccc1OCC(=O)Nc1cccc(C(=O)O)c1`, for which the AC50 is 1.05 µM.

For `Cc1cc(C)cc(N2C(=O)NC(=O)/C(=C\c3cccn3-c3ccccc3)C2=O)c1`, the AC50 was 13.8 µM.

As to `CC(C)C(CCNC1CCN(C)CC1)c1ccc(Cl)cc1` (stereo not drawn), the AC50 is 11.9 µM.

Regarding `CCOC(=O)c1nnn(-c2ccc([N+](=O)[O-])cc2[N+](=O)[O-])c1C`, the AC50 is 8.85 µM.

Regarding `COc1cc(NC(=O)COc2cc(O)c3c(c2)OC(C)(C)CC3=O)cc(OC)c1OC`, the AC50 is 5.36 µM.

As for `CN(C)c1ccc(-n2cccc2/C=C/[N+](=O)[O-])cc1`, the AC50 is 10.2 µM.

As for `O=C(N/N=C\c1ccc([N+](=O)[O-])s1)c1cncc(Br)c1`, the AC50 was 4.34 µM.

For the molecule `O=C(O)c1cccc(N/N=C/c2ccc(OC(F)(F)F)cc2)c1`, the AC50 is 5.95 µM.

`Cc1ccc(C(O)(c2ccc(C)c(C)c2)C2CN3CCC2CC3)cc1C` (stereo not drawn): the AC50 is 10.1 µM.

For `O=C(Nc1ccc(-c2nc3ncccc3o2)cc1)c1ccc([N+](=O)[O-])o1`, the concentration at half-maximal activity (AC50) is 3.63 µM.

Turning to `CCCCn1c(=N)n(CC(=O)c2ccc(Br)s2)c2ccccc21`, the AC50 was 7.45 µM.

As for `O=C(O)c1ccc(Nc2nc3c(s2)CCCC3)cc1`, the AC50 is 6.49 µM.

`Cn1c(=O)c([N+](=O)[O-])c(-n2ccnc2)c2ccccc21`: the AC50 is 6.6 µM.

Consider `N#C/C(=C(/O)c1ccc([N+](=O)[O-])o1)c1nc2ccccc2[nH]1`, for which the AC50 was 3.8 µM.

Regarding `N#CC(C#N)=C1C=CC=CN1/C(=C\c1ccco1)C(=O)c1ccc(Br)cc1`, the AC50 was 5.59 µM.

Turning to `Cc1ccc(C(C)C)c(OCc2nn(CC(=O)c3ccc(Cl)cc3)c3[n+]2CCCCC3)c1`, the AC50 is 9.83 µM.

`O=C1CCC2S/C(=C/Nc3ccc(C(F)(F)F)cc3)C(=O)N12` (stereo not drawn): the AC50 is 3.57 µM.
